Measured values from PubChem BioAssay AID2005 (Sanford-Burnham Center for Chemical Genomics, 2009).
Active and inactive are the calls of the source.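 How the source made its calls: active means plate Z score at or below -3, or inhibition of at least 30% at 20 µM; inactive means the rest.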

Assay: compounds lowering EGFP fluorescence in F442A cells, dose response, counter-screen for p/CIP destabilizer project (AID 2005);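 further: cells express EGFP alone from a CMV promoter as a counter screen for p/CIP-EGFP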
Conditions: F442A EGFP cells, EGFP fluorescence, 16 h, stronger effect = higher value

| SMILES | inhibition (EGFP decrease, at 10 µM) [%] | inhibition (at 20 µM) |
| --- | --- | --- |
| Cn1ncnc2c(=O)n(C)c(=O)nc1-2 | 49.3 | 61.7% |
| COc1ccc2[nH]cc(CC(=O)O)c2c1 | 39.2 | 23.6% (inactive) |
| O=C(O)C(O)Cc1c[nH]c2ccccc12 (stereo unspecified) | 23.8 | 19.1% (inactive) |
| CCOCCc1nnc(NC(=O)CS(=O)(=O)Cc2ccccc2)s1 | 12 | 6% (inactive) |
| Cc1ccc(CN(Cc2ccccc2)C(=S)NCC(=O)NCc2cccnc2)o1 | 5.8 | 6.9% (inactive) |
| C/C(=N\NC(=O)c1cccs1)c1c(O)cc(C)oc1=O | 28.7 | 0.8% (inactive) |
| Nc1cnn(C2OC(CO)C(O)C2O)c(=O)n1 (stereo unspecified) | 18.6 | 22.1% (inactive) |
| Cc1ccc(CNC(=O)C2CCCCN2S(=O)(=O)c2ccccc2)cc1 (stereo unspecified) | -17.4 | 4.6% (inactive) |
| CCS(=O)(=O)N1CCN(c2nc(-c3ccccc3)cs2)CC1 | 13.7 | 15.1% (inactive) |
| CC(C)(C)NC(=O)c1ccc2c(c1)N(CC(=O)N1CCN(c3ccc(F)cc3)CC1)C(=O)C(C)(C)O2 | 8.7 | 12.7% (inactive) |
| Cc1nc(SCC(=O)Nc2cc(C)on2)c2c(=O)n(C)c(=O)n(C)c2n1 | 10 | 6.6% (inactive) |
| CCOC(=O)N1CCC(NC(=O)C2CCCN(S(=O)(=O)c3cccc4nsnc34)C2)CC1 (stereo unspecified) | 11 | 19% (inactive) |
| CC(C)OP(=O)(O)NC(=O)c1ccccc1 | 3.6 | 18.5% (inactive) |
| O=C(Nc1ccc(N2CCOCC2)c(Cl)c1)c1ccc(-n2cnnc2)cc1 | 15.2 | 4.8% (inactive) |
| CC(=O)c1c(N2CCN(Cc3ccc4c(c3)OCO4)CC2)nc(=S)n(-c2ccccc2)c1C | 7.3 | 23.7% (inactive) |
| O=C(NC(=S)NCc1ccccc1)c1ccc(Br)o1 | 23.8 | 19.8% (inactive) |
| CC(=O)c1cccc(N2Cc3ccccc3C2=NC(=O)CCl)c1 | 13.9 | 7.4% (inactive) |
| CCOC(=O)C1=C(N)Oc2cc(C)oc(=O)c2C12C(=O)N1c3c(cc(OC)cc32)C(C)=CC1(C)C (stereo unspecified) | -0.3 | 5.1% (inactive) |
| O=C(Cc1ccccc1)NC(=S)Nc1cccc(C(F)(F)F)c1 | 14.2 | 16.8% (inactive) |
| CCC1=C(OC(=O)N(CC)CC)N2C(=O)OC(=NCC(=O)OC)[C@]2(Cc2ccccc2)[C@H]2C1=CC[C@H]1C(=O)N(c3ccccc3)C(=O)[C@H]12 | 8.2 | 2% (inactive) |
| CC(C)=CC(=O)Nc1ccccc1Br | 26.1 | 12.9% (inactive) |
| CCNS(=O)(=O)c1ccc(OC)c(C(=O)NC2CCCCC2)c1 | 1.8 | 27.8% (inactive) |
| Cc1ccc(NC(=O)N2CCCC2C(=O)NCc2ccc3c(c2)OCO3)cc1 (stereo unspecified) | -10.4 | -0.3% (inactive) |
| O=C(CSc1nnc(-c2ccccc2F)o1)OCc1ccccc1 | 15.7 | 39% |
| Cn1c(NC(=O)c2cccnc2)nc2ccccc21 | -33.6 | -0.5% (inactive) |
| CCCC(=O)Nn1cnc2c(c1=O)C1(CCCCC1)Cc1ccccc1-2 | -8.7 | 4% (inactive) |

| SMILES | inhibition (EGFP decrease, at 10 µM) [%] | inhibition (at 20 µM) |
| --- | --- | --- |
| Cc1cccc2cc(CN(Cc3ccc(F)cc3)Cc3nnnn3C3CCCC3)c(=O)[nH]c12 | 13.4 | 6.5% (inactive) |
| CC(=O)N1c2c(cc(Br)cc2S(=O)(=O)NCc2ccccc2)CC1C (stereo unspecified) | 26.4 | 20.8% (inactive) |
| c1ccc2c3nnc4n(c-3nc2c1)CCCS4 | 17.5 | 23.7% (inactive) |
| CC(=O)Nc1cc2c(cc1C(=O)c1ccc(C)cc1)OCCO2 | 16 | -7.7% (inactive) |
| CC(=O)Nc1ccc2c(c1)nc(CCNC(=O)c1ccco1)n2C | 1.2 | 13% (inactive) |
| CC(CN1CCOCC1)OC(=O)C(C)(c1ccccc1)c1ccccc1 (stereo unspecified) | -14.9 | -4.6% (inactive) |
| Cc1ccc2[nH]c3c(c2c1)CCCC3=O | 28.5 | 27.9% (inactive) |
| COc1ccc(CC(=O)OC(C)C(=O)c2ccc(C)cc2)cc1 (stereo unspecified) | 32 | 25.4% (inactive) |
| CNc1cc(C(F)(F)F)nc(-c2ccccn2)n1 | -1.6 | 22.4% (inactive) |
| CCCCCCn1c(=O)c(C(=O)Nc2cccc(C)n2)c(O)c2ccccc21 | 26.7 | 20.6% (inactive) |
| CCCc1nnc(NC(=O)C2CCN(C(=O)C3CC(=O)N(c4ccc(C)cc4)C3)CC2)s1 (stereo unspecified) | 13.9 | 14.4% (inactive) |
| COc1ccc(CN(CC(=O)NCc2ccc(F)cc2)C(=O)CCC(=O)Nc2ccccn2)cc1 | -14.2 | 16.1% (inactive) |
| COc1ccc(/C=C/C(=O)Nc2cccc(N3CCOCC3)c2)cc1OC | -4.5 | 6.7% (inactive) |
| O=C(Oc1ccccc1-c1nnco1)c1ccccc1 | 31 | -29.2% (inactive) |
| O=S(=O)(NCC1CCCN(Cc2ccccc2)C1)c1cccc2cccnc12 (stereo unspecified) | 21.3 | 19.6% (inactive) |
| Cc1nc2cc3ccccc3cc2c(=O)[nH]1 | 12.2 | 3.3% (inactive) |
| COc1ccc(N2CCN(C(=O)c3cn(C)c(=O)c4c3c3ccccc3n4C)CC2)cc1 | 6.2 | 20.1% (inactive) |
| Cc1onc(-c2ccccc2)c1C(=O)OCC(=O)Nc1cc(S(=O)(=O)N2CCOCC2)ccc1Cl | 13.9 | 19.6% (inactive) |
| Cc1c(NC(=O)CSc2ncccn2)c(=O)n(-c2ccccc2)n1C | 15.5 | 17.7% (inactive) |
| Cc1ccccc1OC(C)C(=O)Nc1ccc(S(=O)(=O)Nc2nccs2)cc1 (stereo unspecified) | -2.8 | -1.1% (inactive) |
| Cc1cc(C)n(C(=O)CNc2ccccc2Cl)n1 | 9 | 23.3% (inactive) |
| Fc1ccc(NC(=S)NCc2cccnc2)cc1 | 28.3 | 8.7% (inactive) |
| CC1CC(C)CN(c2ccc(NS(=O)(=O)c3ccccc3)cc2C(=O)O)C1 (stereo unspecified) | 9.8 | 2.9% (inactive) |
| O=C(COC(=O)COc1ccccc1)NCc1ccccc1 | 16.3 | 11.3% (inactive) |
| N#Cc1cn(CC(=O)NCCc2c[nH]c3ccccc23)c2ccccc12 | 10.9 | -0.3% (inactive) |
| COc1ccccc1CN1CC(C(=O)NCc2cc(F)cc(C(F)(F)F)c2)CCC1=O (stereo unspecified) | 4.7 | 12.5% (inactive) |

| SMILES | inhibition (EGFP decrease, at 10 µM) [%] | inhibition (at 20 µM) |
| --- | --- | --- |
| CCCCS(=O)(=O)Nc1ccc2c(c1)ncn2C1CCCCC1 | 27.7 | 13.8% (inactive) |
| Cc1ccc(S(=O)(=O)CCSc2nc(C)cc(C(F)(F)F)c2C#N)cc1 | -55.8 | -128% (inactive) |
| Cc1ccc(-c2nc(CS(=O)CC(=O)NC3CCC(C)CC3)c(C)o2)cc1 (stereo unspecified) | 27.4 | -4.5% (inactive) |
| Nc1cc(=O)[nH]c(SCC(=O)Nc2cccnc2Cl)n1 | 18.4 | -7.6% (inactive) |
| CC(=O)Nc1ccc(NC2=C(Cl)C(=O)c3ccccc3C2=O)cc1 | 3 | 0.6% (inactive) |
| Nc1ccc(C(=O)N2N=C(c3ccccc3)CC2(O)C(F)(F)F)cc1 (stereo unspecified) | 28.6 | 4.3% (inactive) |
| CCN(CC(=O)N1CCOCC1)S(=O)(=O)c1ccccc1 | 7.2 | -27.6% (inactive) |
| Cc1ccc(S(=O)(=O)Oc2ccc(/C=N/NC(=O)c3nn(C)cc3Cl)cc2)cc1 | 17.3 | 17.2% (inactive) |
| O=C1C2C3C=CC(C2C(=O)N1c1cccc(O)c1)C1C2C(=O)N(c4cccc(O)c4)C(=O)C2C31 (stereo unspecified) | -3 | 12.3% (inactive) |
| Cc1ccc(Cn2c(SCC(C)C)nc3c2c(=O)[nH]c(=O)n3C)cc1 | 6.3 | 20.7% (inactive) |
| CC1CN(C(=O)c2cn3ccccc3n2)CC(C)O1 (stereo unspecified) | 9.8 | 22.5% (inactive) |
| Cc1nc2sc(C(c3cccc(F)c3)N3CC(C)OC(C)C3)c(O)n2n1 (stereo unspecified) | 6.2 | 30% |
| CCc1cc2c(=O)c(-c3cscn3)coc2cc1O | -1.7 | -28% (inactive) |
| COc1ccc(-n2ncc3c(SCC(=O)N4CCN(c5ccccc5OC)CC4)ncnc32)cc1 | 17.1 | 9.4% (inactive) |
| Cc1ccsc1/C=N\NC(=O)CCc1c(C)n[nH]c1C | 4 | -13.2% (inactive) |
| O=C1c2ccccc2C(=O)C1c1ccc2ccccc2n1 | 1.9 | -11.6% (inactive) |
| O=C(CN1C(=O)c2ccccc2C1=O)N(CCO)Cc1ccccc1 | -7.7 | 16% (inactive) |
| CCn1c(SCC(=O)Nc2nc3ccc(C)cc3s2)nc2c(c1=O)SC(C)C2 (stereo unspecified) | 36.6 | 44.7% |
| O=C(Nc1ccc(F)cc1)Nc1nnc(-c2ccco2)s1 | 12 | -2.8% (inactive) |
| CCOc1ccc(-c2nc(-c3ccccc3)no2)cc1OCC | -19.3 | 1.4% (inactive) |
| COc1ccccc1N1CCN(C(=O)C(CC(C)C)NC(=O)C2CCCCC2)CC1 (stereo unspecified) | -31.4 | 6% (inactive) |
| CCN1CCN(CCNC(=O)Nc2ccc([N+](=O)[O-])cc2)CC1 | -0.7 | 6.6% (inactive) |
| CCC(CC)NC(=O)COC(=O)CCC(=O)c1ccc(Cl)cc1 | 5.2 | 24.9% (inactive) |
| O=C(NCc1ccc(Cl)cc1)c1ccc(-c2ccccc2C(F)(F)F)o1 | 16.5 | -4.8% (inactive) |
| CC1CCCCC1NC(=O)c1cn(C)c2ccc(S(=O)(=O)N3CCCC3)cc2c1=O (stereo unspecified) | 12.3 | 6.4% (inactive) |
| Cc1ccc(NC(=O)C(NS(=O)(=O)c2cccc3nsnc23)C(C)C)nc1 (stereo unspecified) | 34.6 | 21.7% (inactive) |
